The values that follow come from PubChem BioAssay (NCI).

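Where inhibition never reached the appropriate level, the endpoint shown equals the highest concentration tested. Otherwise, values were interpolated linearly from a five-concentration, 48-hour dose response in 96-well plates. TGI is the concentration that stops growth completely.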

For the first assay, the system named is MOLT-4 leukemia. The assay is described as follows: growth of human tumour cells (NCI), 48 h.
`c1c[nH]c(-c2ccc(-c3ccc[nH]3)c3nsnc23)c1`: the TGI is above 45.8 µM.
Regarding `CS(=O)(=O)OCC(CCl)(CCl)CCl`, the TGI was above 100 µM.
The same measure, in the same setting: the figure for `CCN(CC)CCn1c(=O)c2cccnc2n2c3c(=O)n(C)c(=O)n(C)c3nc12` is above 100 µM; for `CCOC(=O)C1=C(C)C2C=C(c3cccs3)CC(c3ccc(Cl)cc3)=C2OC1=O` (stereo not given) it is above 100 µM.
Turning to `OCCc1ccsc1-c1sc(-c2cc(CCO)c(-c3sccc3CCO)s2)cc1CCO`, the TGI was above 100 µM.
The same measure, in the same setting: the figure for `COc1ccc2c(c1)OCC1Cc3ccccc3OC21` (stereo not given) is above 100 µM; for `Cc1cc2c3c(nc4ccccc42)C(=O)c2ccccc2-c3n1` it is 24.1 µM.
On the same count and under the same terms, the result for `CCOC(=O)c1nc2c(nc1C(=O)OCC)C(=O)c1ccccc1C2=O` reads 6.31 µM; that for `CCOC(=O)c1c(C)nc2c3ccccc3c(C#N)c(C)n12`, above 100 µM; that for `Cc1ccc(C(=C2Sc3ccccc3S2)C(=C2Sc3ccccc3S2)c2ccc(C)s2)s1`, above 100 µM.
Compound `CCCCC(C(=O)NCCNC(=O)CCC(=O)N(C)O)C(=O)NCCNC(=O)CCC(=O)N(C)O` gave a TGI above 100 µM.
Same read-out and setting: the figure for `COc1cccc2c1OC1(C=C2)Oc2ccccc2C(=O)N1C` (stereo not given) is 81.4 µM.
Same read-out and setting: the result for `CC1=NS(=O)(=O)c2ccccc2N1` reads above 100 µM; that for `O=C(CC(C(=O)c1ccsc1)c1ccc2c(c1)OCO2)c1ccccc1` (stereo not given), above 100 µM.
On the same count and under the same terms, the figure for `COc1ccc(NC(=O)CC(=O)N2N=C(N3c4ccccc4Sc4ccccc43)CC2c2ccccc2)cc1` (stereo not given) is above 100 µM; for `COc1ccc(C2=N/C(=C\c3ccccc3)C(=O)O2)cc1` it is 52.6 µM.
In the case of `CC1(C)C2CCC1(C)[C@H](n1c(=O)n([C@@H]3CC4CCC3(C)C4(C)C)c(=O)n([C@@H]3CC4CCC3(C)C4(C)C)c1=O)C2`, the TGI is above 100 µM.
Still for that read-out and setting: the result for `CSc1nsc(-c2ccccc2)[s+]1` reads above 100 µM; that for `Cc1ccc(-c2[nH]c(=O)n(C3OC(CO)C(O)C(O)C3O)c(=O)c2C#N)cc1` (stereo not given), above 100 µM.
In the case of `Cc1cc(C(=O)CCCCOc2ccc(C3=NCCO3)cc2)c(C)n1C`, the TGI was 34.4 µM.

The test system of a further assay is OVCAR-4 ovarian. The assay is described as follows: growth of human tumour cells (NCI), 48 h.
On to `CC1=NN(c2cccc(Cl)c2)C2(SCC(=O)N2c2nc3ccccc3s2)/C1=C\c1ccccc1O` (stereo not given), for which the TGI is above 100 µM.
Same read-out and setting: the figure for `CCCCCCOc1ccc(C(=O)NOC)cc1` is above 100 µM.
Same read-out and setting: the figure for `Cc1c(S(=O)(=O)c2ccccc2)c(N)n(CCN(C)C)c1C` is above 100 µM.
With `CC1CCC(C(=O)O)(C(Br)C(=O)O)CC1` (stereo not given), the TGI is above 100 µM.
The same measure, in the same setting: the figure for `COc1cc(NS(C)(=O)=O)ccc1Nc1cc(C)[nH]c2ccc3nccc3c12` is above 100 µM.
The same measure, in the same setting: the figure for `COc1ccc(-c2nc(SCC(=O)N/N=C/c3ccc(N(C)C)cc3)[nH]c2-c2ccc(OC)cc2)cc1` is above 100 µM; for `c1c[nH]c(-c2ccc(-c3ccc[nH]3)c3nsnc23)c1` it is above 16.5 µM; for `CS(=O)(=O)OCC(CCl)(CCl)CCl` it is above 100 µM.
The same measure, in the same setting: the figure for `N#Cc1c(-c2ccccc2)/c(=C\Nc2ccc(F)cc2)c(=O)n2c1nc1ccccc12` is above 100 µM; for `CCN(CC)CCn1c(=O)c2cccnc2n2c3c(=O)n(C)c(=O)n(C)c3nc12` it is above 100 µM; for `CCOC(=O)C1=C(C)C2C=C(c3cccs3)CC(c3ccc(Cl)cc3)=C2OC1=O` (stereo not given) it is above 100 µM.
The compound `OCCc1ccsc1-c1sc(-c2cc(CCO)c(-c3sccc3CCO)s2)cc1CCO` displayed a TGI of 34 µM.
Still for that read-out and setting: the result for `Cc1cc2c3c(nc4ccccc42)C(=O)c2ccccc2-c3n1` reads above 100 µM; that for `CCOC(=O)c1nc2c(nc1C(=O)OCC)C(=O)c1ccccc1C2=O`, 1.95 µM.
On the same count and under the same terms, the figure for `CCOC(=O)c1c(C)nc2c3ccccc3c(C#N)c(C)n12` is above 100 µM; for `Cc1ccc(C(=C2Sc3ccccc3S2)C(=C2Sc3ccccc3S2)c2ccc(C)s2)s1` it is above 100 µM.
Same read-out and setting: the result for `CCCCC(C(=O)NCCNC(=O)CCC(=O)N(C)O)C(=O)NCCNC(=O)CCC(=O)N(C)O` reads above 100 µM; that for `O=c1[nH]c(Nc2nc3ccccc3[nH]2)nc(O)c1-c1ccccc1`, above 100 µM.
For the compound `COc1cccc2c1OC1(C=C2)Oc2ccccc2C(=O)N1C` (stereo not given), the TGI is above 100 µM.
On the same count and under the same terms, the result for `CC1=NS(=O)(=O)c2ccccc2N1` reads above 100 µM; that for `O=C(CC(C(=O)c1ccsc1)c1ccc2c(c1)OCO2)c1ccccc1` (stereo not given), above 100 µM.
Same read-out and setting: the result for `COc1ccc(NC(=O)CC(=O)N2N=C(N3c4ccccc4Sc4ccccc43)CC2c2ccccc2)cc1` (stereo not given) reads above 100 µM.
The same measure, in the same setting: the figure for `O=C(O)CCC(=O)OC1N=C(c2ccccc2Cl)c2cc([N+](=O)[O-])ccc2NC1=O` (stereo not given) is above 100 µM; for `COc1ccc(C2=N/C(=C\c3ccccc3)C(=O)O2)cc1` it is above 100 µM; for `CC1(C)C2CCC1(C)[C@H](n1c(=O)n([C@@H]3CC4CCC3(C)C4(C)C)c(=O)n([C@@H]3CC4CCC3(C)C4(C)C)c1=O)C2` it is above 100 µM.
Compound `CSc1nsc(-c2ccccc2)[s+]1` came in with a TGI above 100 µM.
Still for that read-out and setting: the result for `CC(=N/N=C/c1ccccn1)/C(C)=N/N=C(C)/C(C)=N/N=C(C)/C(C)=N/N=C(C)/C(C)=N\N=C\c1ccccn1` reads above 100 µM; that for `Cc1ccc(-c2[nH]c(=O)n(C3OC(CO)C(O)C(O)C3O)c(=O)c2C#N)cc1` (stereo not given), above 100 µM.
The same measure, in the same setting: the result for `Cc1cc(C(=O)CCCCOc2ccc(C3=NCCO3)cc2)c(C)n1C` reads above 100 µM.

The subject of another assay is HS 578T breast. The assay is described as follows: growth of human tumour cells (NCI), 48 h.
As to `CC1=NN(c2cccc(Cl)c2)C2(SCC(=O)N2c2nc3ccccc3s2)/C1=C\c1ccccc1O` (stereo not given), the TGI was found to be 65.5 µM.
The same measure, in the same setting: the figure for `CCCCCCOc1ccc(C(=O)NOC)cc1` is above 100 µM.
Same read-out and setting: the result for `Cc1c(S(=O)(=O)c2ccccc2)c(N)n(CCN(C)C)c1C` reads above 100 µM; that for `COc1cc(NS(C)(=O)=O)ccc1Nc1cc(C)[nH]c2ccc3nccc3c12`, above 100 µM.
As to `CCOC(=O)Cn1c(=O)c2nc(SC)sc2n(-c2ccccc2)c1=O`, the TGI was above 100 µM.
Still for that read-out and setting: the figure for `c1c[nH]c(-c2ccc(-c3ccc[nH]3)c3nsnc23)c1` is above 100 µM.
On the same count and under the same terms, the result for `CS(=O)(=O)OCC(CCl)(CCl)CCl` reads above 100 µM; that for `CCN(CC)CCn1c(=O)c2cccnc2n2c3c(=O)n(C)c(=O)n(C)c3nc12`, above 100 µM.
The same measure, in the same setting: the figure for `CCOC(=O)C1=C(C)C2C=C(c3cccs3)CC(c3ccc(Cl)cc3)=C2OC1=O` (stereo not given) is above 100 µM.
`Cc1cc2c3c(nc4ccccc42)C(=O)c2ccccc2-c3n1` had a TGI of 46.7 µM.
`CCOC(=O)c1nc2c(nc1C(=O)OCC)C(=O)c1ccccc1C2=O` returned a TGI of 0.766 µM.
Still for that read-out and setting: the figure for `CCOC(=O)c1c(C)nc2c3ccccc3c(C#N)c(C)n12` is above 100 µM.
For `Cc1ccc(C(=C2Sc3ccccc3S2)C(=C2Sc3ccccc3S2)c2ccc(C)s2)s1`, the TGI is above 100 µM.
Same read-out and setting: the figure for `O=c1[nH]c(Nc2nc3ccccc3[nH]2)nc(O)c1-c1ccccc1` is above 100 µM.
On to `COc1cccc2c1OC1(C=C2)Oc2ccccc2C(=O)N1C` (stereo not given), for which the TGI stood at 81.8 µM.
Same read-out and setting: the figure for `O=C(CC(C(=O)c1ccsc1)c1ccc2c(c1)OCO2)c1ccccc1` (stereo not given) is above 100 µM.
